Assay results from patent publication US4143010A, “High retention wood preservative composition” (Canadian Patents and Development Limited, priority 1978, dated 1979).
Values after ≈ are worked out from the molar mass of the structure shown. Read-outs that look alike come from different tables or passages of the source.

Assays:
Leaching resistance test = type: physicochemical; conditions: for increase of leaching resistance due to additives: with additives versus without
Experimental: Solution I 5% w/v D-18 in chloroform
Solution II 5% w/v D-20 in chloroform
1.0% w/v polystyrene in chloroform
Solution IV same as III but with 5% w/v D-20.
uptake of preservative was calculated from the weight increase. Chloroform solvent was removed from the samples by air drying followed by drying in the oven at 105° C. for 4 hours. Each sample was leached with a standard volume of distilled water at room temperature. Every two hours the water surrounding each sample was removed for spectrophotometric measurement and was replaced by another standard volume of fresh distilled water. Total leaching time was 140 hours. The concentration of D18 and D20 in the leach water was determined by comparing specific absorbance in UV light with the absorbance of known concentrations of D18 and D20 in water. The leached amount of D18 and D20 was recalculated as a percent of the original amount impregnated into the samples before leaching.

Lenzites trabea [1] = experiment: Effectiveness against decay fungi on spruce sections; type: cell-based, Lenzites trabea (S644); conditions: for Average Percentage of Wood Area Colonized: 19 days at 27° C
Experimental: (§1) The fungicidal activity of these compositions was determined in an accelerated experiment with the wood-rotting basidiomycetes Lenzites trabea (S644), Coniophora puteana (A302) and Poria monticola (A384) as test fungi. Small cross-the-grain sections of spruce wood (Picea glauca, a refractory species) were cut 40 microns thick on a microtome. All treatment specimens (0.5 × 0.5 inch) were cut from the same block of wood and were therefore homogeneous in nature. Wood specimens were treated to different retention levels with the active ingredients D18 or D20 with or without the additives. Two of each treatment series were placed on sterilized glass microscopic cover slips (22 mm^2) which were then deposited upon cultures of actively growing decay fungi in Petri dishes. Cultures were grown on a 2% malt extract, 2% agar medium. Two untreated specimens were included in each culture dish as controls. Treatment series were 0.1, 0.5 and 1.75 pcf. Incubation was for 19 days at 27° C. Each test was done in duplicate. Evaluation of the treated samples was made using a stereoscopic microscope (× 10.5 magnification). The percentage of the surface area of each specimen colonized by the test fungus was determined. The smaller the colonized surface area on each wood specimen, the more efficient the preservative composition used for specimen treatment.

Coniophora puteana = experiment: as above; type: cell-based, Coniophora puteana (A302); conditions: 19 days at 27° C
Experimental: as §1

Poria monticola [2] = experiment: as above; type: cell-based, Poria monticola (A384); conditions: for Average Percentage of Wood Area Colonized: 19 days at 27° C
Experimental: as §1

[3] = Test of solubility of oxathiins and additives in various solvents; type: physicochemical
Text: Table 5 is a solubility chart summarizing a list of organic solvents solubilizing oxathiins and the two additives which can be applied in the same solution.

[4] = Accelerated sublimation test of deposits on glass under vacuum; type: physicochemical; conditions: room temperature
Text: In order to determine the influence of chemical components in the preservative composition on loss of preservative (PCP) under accelerated sublimation conditions, three solutions have been prepared, separately, in carbon tetrachloride as a solvent (in percent w/v).
I. solution: PCP (3.5%) as a preservative.
Ii. solution; PCP (3.5%) and stearic acid (3.5%) as the hydrophobic agent.
III. Solution: PCP (3.5%) stearic acid (3.5%) and polystyrene (0.7%) as the organic polymer.
The same volume of each solution (0.07 ccm/sq.in.) has been poured on the surface of glass template and the solent evaporated at room temperature leaving solid deposits of each sample. Then these deposits of the 3 different preservative compositions (I--II--III), in which the amount of preservative (PCP) was the same, were exposed to vacuum at room temperature in order to accelerate the loss of components. The loss of weight of each single deposit was checked periodically and is expressed in FIG. 1 in percent of original weight of preservative (PCP).

Poria monticola [5] = experiment: Soil-block culture decay test after leaching; type: cell-based; conditions: leached samples
Text: 5% (w/cv) D18 in chloroform and
5% (w/v) D18 with 1.4% wax and 1% polystyrene in chloroform solution.
After solvent removal by slow air drying and a short period of oven drying both series of samples were exposed to leaching in water under the same conditions (time of exposure, temperature and volume of water for leaching). […] After leaching the samples were further tested for toxicity against a wood-decaying fungus in a modified standard method of testing wood preservatives by laboratory soil-block cultures. Five untreated controls and 5 samples from each preservative series were put into soil jars on wooden feeder blocks inoculated with a standard test fungus Poria monticola. […] Jars were located in an incubation room maintained at 80° F. and 70% R.H. and were opened one by one in five consecutive time intervals, after 25 -- 32 -- 39 -- 46 and 65 days incubation. Wood specimens taken from the jars were oven dried and the weight loss due to decay calculated.

Lenzites trabea [6] = conditions: wood preservative threshold; cited from earlier work
[7] = Hydrophobicity (contact angle of water drops) of treated red pine; type: physicochemical; conditions: contact angle 180°
Experimental: The same solutions of preservative compositions (I--II--III), as in Example I have been used for impregnation of red pine wood samples in order to determine the effect on hydrophobicity of wood. After the samples of wood have been fully saturated by solutions I--II--III, the solvent was then evaporated at room temperature during the next 24hours, leaving solid deposits of the components in the wood. Measurements of contact angles of the surface of water drops on pertinent wood samples were made to show the relative hydrophobicity. The sooner the water soaks in the surface of wood (contact angle 180°) the lower the hydrophobicity of wood and vice versa.

[8] = Immobilization of PCP in spruce microsections, vacuum exposure and microscopy; type: physicochemical
Text: From both samples, microsections were cut from the wood tissues, approximately 0.35 -0.37 inch from the surface in the radial direction, i.e. within the area, where the PCP was positively detected by previous staining. Numerous microscopic sections (transverse) were made from both samples (A and B) separately. From each of both groups of microsections, typical sections were again microscopically stained with a Silver-Copper complex (which is the basis of the "Penta-Check") to detect again PCP in the microsections. Other typical unstained microsections were mounted into microscopic slides and without any staining examined microscopically. On the viewed microsections of treated wood typical spots were selected where the cell obviously contained significant deposits of PCP, and photographed, at the same magnification. Photographed microsections from sample A and B were then carefully removed from the slides, gently dried off by a touch of absorbent paper at the corner of the microsections, and transferred into a vacuum desiccator by a micromanipulator. The desiccator was then closed and very slowly evacuated. When the vacuum reached 29.5 inch Hg, the desiccator was sealed and the microsections left for 7 days ([…]). Then the desiccator, still at 27 inch vacuum, was slowly filled with air, opened and the microsections transferred onto glass slides and mounted for microscopic examination. This exposure under the same vacuum conditions (29.5 -27 inch Hg) for 7 days gave accelerated sublimation of PCP. The accelerated vacuum test is considered as an accurate simulation of the effect of ordinary atmosphere for an extended time. The microscopic slides were carefully examined, the same spot of each microsection was found (as photographed before vacuum exposure) and rephotographed (at the same magnification) for comparison.
Two pairs of photomicrographs are shown as FIGS. 1 (a ) and 1 (b ), and as FIGS. 2 (a ) and 2 (b ), being typical of observations of as many as 50 microsections. […]

[9] = retention 0.1 pcf, * = mycelia extended over the top but did not colonize all substrate underneath
[10] = water, read-out: Solubility in water

SMILES: CC1=C(C(=O)Nc2ccccc2)S(=O)(=O)CCO1 [Solution D20]
- Cumulative Percent Preservative Leached from Wood (Leaching resistance test; 10 hours of exposure): 10%
- Cumulative Percent Preservative Leached from Wood (Leaching resistance test; 30 hours of exposure): 38%
- Cumulative Percent Preservative Leached from Wood (Leaching resistance test; 70 hours of exposure): 54%
- Cumulative Percent Preservative Leached from Wood (Leaching resistance test; 140 hours of exposure): 61%
- increase of leaching resistance due to additives (Leaching resistance test): 17-27%
- effect of additives on effectiveness (Lenzites trabea [1]): increase in the effectiveness of D20 due to the additives
- Average Percentage of Wood Area Colonized (Lenzites trabea [1]; [9]): 50 Percentage
- Average Percentage of Wood Area Colonized (Lenzites trabea [1]; retention 0.5 pcf): 0 Percentage
- Average Percentage of Wood Area Colonized (Lenzites trabea [1]; retention 1.75 pcf): 0 Percentage
- Average Percentage of Wood Area Colonized (Coniophora puteana; retention 0.1 pcf): 40 Percentage
- Average Percentage of Wood Area Colonized (Coniophora puteana; retention 0.5 pcf): 10 Percentage
- Average Percentage of Wood Area Colonized (Coniophora puteana; retention 1.75 pcf): 10 Percentage
- effect of additives on effectiveness (Poria monticola [2]): increase in the effectiveness of D20 due to the additives
- Average Percentage of Wood Area Colonized (Poria monticola [2]; [9]): 50 Percentage
- Average Percentage of Wood Area Colonized (Poria monticola [2]; retention 0.5 pcf): 15 Percentage
- Average Percentage of Wood Area Colonized (Poria monticola [2]; retention 1.75 pcf): 10 Percentage
- solubility ([3]; Carbon tetrachloride): - (+)
- solubility ([3]; Perchloroethylene): - (+)
- solubility [3, 10]: 1000 µg/mL (≈ 3740 µM)

SMILES: CCCCCCCCCCCCCCCCCC(=O)O [stearic acid]
- reduction of PCP sublimation compared to the control ([4]; vacuum, control = PCP alone): 34%

SMILES: CC1=C(C(=O)Nc2ccccc2)SCCO1 [Solution D18, 2,3-dihydro-5-carboxanilido-6-methyl-1,4-oxathiin]
- Cumulative Percent Preservative Leached from Wood (Leaching resistance test; 10 hours of exposure): 14%
- Cumulative Percent Preservative Leached from Wood (Leaching resistance test; 30 hours of exposure): 27%
- Cumulative Percent Preservative Leached from Wood (Leaching resistance test; 70 hours of exposure): 43%
- Cumulative Percent Preservative Leached from Wood (Leaching resistance test; 140 hours of exposure): 56%
- increase of leaching resistance due to additives (Leaching resistance test): 51-57%
- Average Percentage of Wood Area Colonized (Lenzites trabea [1]; [9]): 25 Percentage
- Average Percentage of Wood Area Colonized (Lenzites trabea [1]; retention 0.5 pcf): 0 Percentage
- Average Percentage of Wood Area Colonized (Lenzites trabea [1]; retention 1.75 pcf): 0 Percentage
- Average Percentage of Wood Area Colonized (Coniophora puteana; retention 0.1 pcf): 30 Percentage
- Average Percentage of Wood Area Colonized (Coniophora puteana; retention 0.5 pcf): 5 Percentage
- Average Percentage of Wood Area Colonized (Coniophora puteana; retention 1.75 pcf): 5 Percentage
- Average Percentage of Wood Area Colonized (Poria monticola [2]; [9]): 40 Percentage
- Average Percentage of Wood Area Colonized (Poria monticola [2]; retention 0.5 pcf): 0 Percentage
- Average Percentage of Wood Area Colonized (Poria monticola [2]; retention 1.75 pcf): 0 Percentage
- Cumulative Percent Weight Loss Due to Decay (Poria monticola [5]; 25 days of incubation): 2%
- Cumulative Percent Weight Loss Due to Decay (Poria monticola [5]; 32 days of incubation): 4%
- Cumulative Percent Weight Loss Due to Decay (Poria monticola [5]; 39 days of incubation): 6%
- Cumulative Percent Weight Loss Due to Decay (Poria monticola [5]; 46 days of incubation): 10%
- Cumulative Percent Weight Loss Due to Decay (Poria monticola [5]; 65 days of incubation): 21%
- solubility [3, 10]: 170 µg/mL (≈ 722 µM)
- known threshold level (Lenzites trabea [6]): 1.1 mg/mL

SMILES: Oc1c(Cl)c(Cl)c(Cl)c(Cl)c1Cl [PCP, pentachlorophenol]
- loss of PCP ([4]; deposit on glass under vacuum, % of original weight of PCP (FIG. 1)): 99%
- time for water to soak into wood surface [7]: ≤ 40 s
- PCP retention after vacuum exposure ([8]; 164 hours, 29.5-27 inch Hg): had disappeared after vacuum exposure
- water repellency of microsections ([8]; microscopic sections): not highly water repellent
- distribution of PCP in the cells ([8]; microscopic staining): deposited on the cell walls in individual spots
